Experimental data reported in patent US20200197409A1, “HEPATITIS B VIRUS SURFACE ANTIGEN INHIBITOR” (FUJIAN COSUNTER PHARMACEUTICAL CO., LTD., priority 2017, published 2020).

Assays:
[1] = tested on: HBV-DNA; test: HBV DNA content in HepG2.2.15 cells culture supernatant by real time-qPCR; format: cell-based; settings: supernatant on the 8th day
Protocol: (§1) 2.1 Cell Line: HepG2.2.15 Cells
3.6 15 μL of the reaction mixture was added into each well of a 96-well PCR plate, followed by addition of 10 μL of sample DNA or HBV DNA standards into each well.
3.7 PCR reaction conditions: heating at 95° C. for 10 minutes, then denaturation at 95° C. for 15 seconds, extension at 60° C. for 1 minute, a total of 40 cycles.

[2] = tested on: HBsAg; settings: read-out: HBsAg EC50; HepG2.2.15 cells, supernatant on the 8th day
Protocol: The HBV DNA content in HepG2.2.15 cells culture supernatant was determined by real-time quantitative qPCR assay (real time-qPCR), and the HBV surface antigen content was determined by enzyme linked immunosorbent assay (ELISA). The inhibitory effect of the compound on HBV was evaluated by the EC50 value of the compound.
as §1
3.1 HepG2.2.15 cells (4×10^4 cells/well) were seeded into a 96-well plate and incubated overnight at 37° C. under 5% CO2.
3.2 On the 2nd day, the compound was diluted into 8 concentrations with 3-fold gradient. The compounds with different concentrations were added into the culture wells in duplicate wells. The final concentration of DMSO in the culture medium was 0.5%, 10 μM ETV was used as a 100%/inhibition control, and 0.5% DMSO was used as a 0% inhibition control.
3.3 On the 5th day, the culture medium was replaced with a fresh medium containing the compound.
3.4 On the 8th day, the culture medium in the culture well was collected, and a part of the sample was taken for ELISA to determine the content of hepatitis B virus S antigen, a part of the sample was taken to extract DNA with a high-throughput DNA purification kit (Qiagen-51162).
3.8 Determination of hepatitis B virus S antigen content by ELISA
50 μL of sample and standard sample were taken and added into a reaction plate respectively, followed by addition of 50 μL of enzyme conjugate into each well, the mixture was shaken and well-mixed, and placed in a bath at 37° C. for 60 minutes. The plate was then washed with washing solution 5 times, followed by addition of 50 μL of illuminating substrate into each well, the mixture was well-mixed and allowed to react at room temperature for 10 minutes in the dark. Chemiluminescence intensity was determined by a ELISA.
Calculation of the percentage of inhibition:% Inh.=(1−value of sample/value of DMSO control)×100
Calculation of EC50: The 50% inhibitory concentration (EC50) value of the compound on HBV was calculated by GraphPad Prism software.

[3] = Plasma protein binding rate, human plasma; format: in vitro ADME; settings: plasma of human, dialysis 4 hours at 37° C.
Protocol: The protein binding rate of Embodiment 6 in the plasma of human, CD-1 mouse and SD rat was determined, 796 μL of blank plasma was taken from human, CD-1 mice and SD rats, and 4 μL of test compound working solution (400 μM) or warfarin working solution (400 μM) was added to achieve a final concentration of the test compound and the warfarin in plasma samples of 2 μM. The samples were mixed thoroughly. The final concentration of organic phase DMSO was 0.5%, 50 μL of the test compound and warfarin plasma sample were transferred into sample receiving plates (three parallels), and a relative volume of corresponding blank plasma or buffer was immediately added, ensuring that the final volume of each sample well was 100 μL, and the volume ratio of plasma to dialysis buffer was 1:1. 400 μL of stop solution was added to these samples, which was used as a T0 sample for the determination of recovery and stability. […] The protein binding rate and the recovery rate were calculated by the formulas: % Protein unbinding rate (%)=100*Drug concentration through the dialysis membrane/drug concentration not through the dialysate: Protein binding rate (%)=100-% protein unbinding rate: % Recovery=100*(Drug concentration through the dialysis membrane+Drug concentration not through the dialysate)/Total drug concentration before undialysis. Protein binding rate and recovery rate were calculated.

[4] = Microsomal metabolism stability, human; format: in vitro ADME; settings: human liver microsomes 0.5 mg/mL, 1 μM, NADPH, 37° C.
Protocol: The microsomal metabolism stability of the test compound (Embodiment 6) in three species was determined. 1 μM test compound and microsomes (0.5 mg/mL) supplemented with NADPH regeneration system were incubated at 37° C. The positive controls were testosterone (3A4 substrate), propafenone (2D6 substrate) and diclofenac (2C9 substrate), respectively. The positive control and microsomes (0.5 mg/mL) supplemented with NADPH regeneration system were incubated at 37° C. Samples at different time points (0, 5, 10, 20, 30, and 60 minutes) were mixed directly with cold acetonitrile containing an internal standard to terminate the reaction. The compound and microsomes were incubated for 60 minutes without the NADPH regeneration system. One parallel was set at each time point (n=1). The samples were analyzed by LC/MS/MS. The concentration of the compound was indicated by the ratio of the peak area of the analyte to the peak area of the internal standard.

[5] = Single-dose pharmacokinetic study on mouse; format: in vivo, C57BL/6 mice
[6] = Single-dose pharmacokinetic study on rat; format: in vivo, SD rats
[7] = 14-day pre-toxicology tolerance test on rat; format: in vivo; settings: once a day for 14 days, male rats
Protocol: [table] A total of 21 animals in this experiment were randomly divided into 7 groups. The animals were orally administered with the test compounds once a day for 14 consecutive days, and the toxicity was evaluated. Animal necropsy and tissue would be taken from the fixative, repaired, dehydrated, embedded, sectioned, stained and microscopically examined. These tissues included the liver, heart and lung of all animals, and spleen, stomach, duodenum, jejunum, ileum, and kidney of partial animals.

**Q.** With `COCCCOc1cc2c(cc1OC)-c1cc(=O)c(C(=O)O)cn1[C@H](C(C)(C)C)CO2` [Embodiment 6] as the compound, how does the EC50 [1] read?
**A.** 2.55 nM

**Q.** What about the EC50 [2] of the same compound?
**A.** 3.88 nM

**Q.** And the fraction unbound at 4 h, 2 μM [3]?
**A.** 0.443

**Q.** What about the “remaining ratio at T=60 min” value [4] of the same compound?
**A.** 109.1%

**Q.** What about the Apparent distribution volume ([5]; IV: 1 mg/kg PO: 2 mg/kg) of the same compound?
**A.** 5.79 L/kg

**Q.** What about the Bioavailability ([5]; IV: 1 mg/kg PO: 2 mg/kg) of the same compound?
**A.** 91.6%

**Q.** What about the Highest concentration ([5]; IV: 1 mg/kg PO: 2 mg/kg) of the same compound?
**A.** 1055 nM

**Q.** And the half-life ([5]; male, C57BL/6, plasma, IV: 1 mg/kg PO: 2 mg/kg)?
**A.** 2.46 h

**Q.** What about the clearance ([5]; male, C57BL/6, plasma, IV: 1 mg/kg PO: 2 mg/kg, read-out: Clearance rate) of the same compound?
**A.** 4.5 L/h/kg

**Q.** What about the AUC(0-t) ([5]; male, C57BL/6, plasma, IV: 1 mg/kg, read-out: AUC0-last (Intravenous injection)) of the same compound?
**A.** 502 nM·h

**Q.** What about the AUC(0-t) ([5]; male, C57BL/6, plasma, PO: 2 mg/kg, read-out: AUC0-last (Oral)) of the same compound?
**A.** 876 nM·h

**Q.** And the Apparent distribution volume ([6]; IV: 1 mg/kg PO: 2 mg/kg)?
**A.** 1.72 L/kg

**Q.** What about the Bioavailability ([6]; IV: 1 mg/kg PO: 2 mg/kg) of the same compound?
**A.** 71.1%

**Q.** What about the Highest concentration ([6]; IV: 1 mg/kg PO: 2 mg/kg) of the same compound?
**A.** 659 nM

**Q.** And the half-life ([6]; male, SD, plasma, IV: 1 mg/kg PO: 2 mg/kg)?
**A.** 1.98 h

**Q.** And the clearance ([6]; male, SD, plasma, IV: 1 mg/kg PO: 2 mg/kg, read-out: Clearance rate)?
**A.** 1.69 L/h/kg

**Q.** What about the AUC(0-t) ([6]; male, SD, plasma, IV: 1 mg/kg, read-out: AUC0-last (Intravenous injection)) of the same compound?
**A.** 1360 nM·h

**Q.** What about the AUC(0-t) ([6]; male, SD, plasma, PO: 2 mg/kg, read-out: AUC0-last (Oral)) of the same compound?
**A.** 1830 nM·h

**Q.** What about the “histopathological changes associated with the test compound” value ([7]; high dose group (1000 mg/kg)) of the same compound?
**A.** little or mild decrease of white pulp lymphocytes in the spleen

**Q.** What about the “histopathological changes associated with the test compound” value ([7]; medium and low dose groups (300 and 100 mg/kg), heart, liver and lung examined) of the same compound?
**A.** no histopathological changes associated with the test compound were observed
